From the supplement of paper PMC10627819
Values after ≈ are worked out from the molar mass of the structure shown.

Assays:
[1] = test system: B. subtilis 168; assay: fitness (endpoint OD595 vs no drug) (fraction); higher = more growth
Outline: (§1)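 Fitness was defined as the optical density at the transition into stationary phase relative to the robust mean of no-drug control wells. Values were capped at 1. Cultures were started at OD595 0.01 in 384-well plates (30 µl, or 55 µl for S. pneumoniae) in TSB, LB Lennox or CY at 37 °C. OD595 was recorded every 30 min over 14 h, with the first reading subtracted as background.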

[2] = test system: S. aureus Newman; assay: as above
Outline: as §1

[3] = test system: S. pneumoniae D39V; assay: as above
Outline: as §1

[4] = test system: S. aureus DSM 20231; assay: as above
Outline: as §1

[5] = test system: B. subtilis 168; assay: Bliss interaction score (quartile over a dose matrix) (fitness difference); higher = more antagonism (negative = synergy)
Outline: (§2)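 Fitness is OD595 at stationary-phase entry relative to the plate's robust no-drug mean, capped at 1. Single-drug fitness was inferred from combinations. The Bliss score is observed minus product-expected fitness, summarised by quartiles over technical, biological and donor/recipient replicates.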

[6] = test system: S. aureus Newman; assay: as above
Outline: as §2

[7] = test system: S. pneumoniae D39V; assay: as above
Outline: as §2

[8] = test system: S. aureus DSM 20231; assay: as above
Outline: as §2

[9] = test system: B. subtilis 168
[10] = test system: S. aureus Newman
[11] = test system: S. pneumoniae D39V
[12] = test system: S. aureus DSM 20231
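Throughout, for Bliss interaction score (quartile over a dose matrix): first quartile when negative (synergy) and third quartile when positive (antagonism).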

CN[C@@H]1[C@H](O)[C@H](NC)[C@H]2O[C@@]3(O)C(=O)C[C@@H](C)O[C@H]3O[C@@H]2[C@H]1O [Spectinomycin] + CC1=C\[C@@H](O)CC(=O)Cc2nc(co2)C(=O)N2CCC=C2C(=O)O[C@H](C(C)C)[C@H](C)/C=C/C(=O)NC\C=C\1 [Virginiamycin M1]
fitness
Settings	first compound 2 µg/mL	first compound 4 µg/mL	first compound 8 µg/mL	first compound 16 µg/mL
[1], partner 0.0625 µg/mL	0.916	0.979	0.915	–
[1], partner 0.125 µg/mL	0.982	0.941	0.947	–
[1], partner 0.25 µg/mL	≥ 1	0.972	0.875	–
[2], partner 0.0625 µg/mL	–	0.936	0.997	0.934
[2], partner 0.125 µg/mL	–	0.944	≥ 1	0.961
[2], partner 0.25 µg/mL	–	0.942	≥ 1	0.937
[3], partner 0.5 µg/mL	–	0.972	0.93	–
[3], partner 1 µg/mL	–	0.96	0.916	–
[3], partner 2 µg/mL	–	0.931	0.889	0.8
[4], partner 0.0625 µg/mL	–	0.933	0.993	0.809
[4], partner 0.125 µg/mL	–	≥ 1	0.896	0.83
[4], partner 0.25 µg/mL	–	0.961	0.873	0.791

fitness, one replicate
Settings	[2]	[3]	[4]
first compound 4 µg/mL, partner 0.15 µg/mL	–	≥ 1	–
first compound 4 µg/mL, partner 0.3 µg/mL	–	0.939	–
first compound 4 µg/mL, partner 0.5 µg/mL	0.839	–	0.769
first compound 4 µg/mL, partner 1 µg/mL	0.882	–	0.735
first compound 4 µg/mL, partner 2 µg/mL	0.769	–	–
first compound 8 µg/mL, partner 0.15 µg/mL	–	0.944	–
first compound 8 µg/mL, partner 0.3 µg/mL	–	0.927	–
first compound 8 µg/mL, partner 0.5 µg/mL	0.817	–	0.735
first compound 8 µg/mL, partner 1 µg/mL	0.887	–	0.691
first compound 8 µg/mL, partner 2 µg/mL	0.787	–	–
first compound 16 µg/mL, partner 0.15 µg/mL	–	0.894	–
first compound 16 µg/mL, partner 0.3 µg/mL	–	0.93	–
first compound 16 µg/mL, partner 0.5 µg/mL	0.876	0.857	0.65
first compound 16 µg/mL, partner 1 µg/mL	0.777	0.731	0.704
first compound 16 µg/mL, partner 2 µg/mL	0.686	–	–
first compound 32 µg/mL, partner 0.0625 µg/mL	0.654	–	0.643
first compound 32 µg/mL, partner 0.125 µg/mL	0.629	–	0.736
first compound 32 µg/mL, partner 0.25 µg/mL	0.602	–	0.637
first compound 64 µg/mL, partner 0.0625 µg/mL	0.0794	–	0.0659
first compound 64 µg/mL, partner 0.125 µg/mL	0.124	–	0.0603
first compound 64 µg/mL, partner 0.25 µg/mL	0.124	–	0.0858

Settings	Bliss interaction score
[5]	0.042
[6]	0.0692
[7]	0.052
[8]	-0.0719

CN[C@@H]1[C@H](O)[C@H](NC)[C@H]2O[C@@]3(O)C(=O)C[C@@H](C)O[C@H]3O[C@@H]2[C@H]1O [Spectinomycin] + CCCCCCCCCC(=O)N[C@@H]1[C@H]([C@@H]([C@H](O[C@H]1OC2=C3C=C4C=C2OC5=C(C=C(C=C5)[C@H]([C@H]6C(=O)N[C@@H](C7=C(C(=CC(=C7)O)OC8[C@H]([C@H]([C@@H]([C@H](O8)CO)O)O)O)C9=C(C=CC(=C9)[C@H](C(=O)N6)NC(=O)[C@@H]4NC(=O)[C@@H]1C2=CC(=CC(=C2)OC2=C(C=CC(=C2)[C@H](C(=O)N[C@H](CC2=CC(=C(O3)C=C2)Cl)C(=O)N1)N)O)O)O)C(=O)O)O[C@H]1[C@@H]([C@H]([C@@H]([C@H](O1)CO)O)O)NC(=O)C)Cl)CO)O)O [Teicoplanin]
fitness, main component drawn
Settings	first compound 4 µg/mL	first compound 8 µg/mL	first compound 16 µg/mL
[2], partner 0.1562 µg/mL	≥ 1	≥ 1	0.993
[2], partner 0.3125 µg/mL	≥ 1	0.998	0.973
[2], partner 0.625 µg/mL	0.817	0.705	0.831
[4], partner 0.1562 µg/mL	0.938	≥ 1	0.889
[4], partner 0.3125 µg/mL	0.962	0.969	0.919
[4], partner 0.625 µg/mL	≥ 1	≥ 1	0.985

fitness, one replicate, main component drawn
Settings	partner 0.1562 µg/mL	partner 0.3125 µg/mL	partner 0.62 µg/mL	partner 0.625 µg/mL	partner 1.24 µg/mL	partner 2.48 µg/mL
[2], first compound 4 µg/mL	–	–	0.792	–	0.743	0.411
[2], first compound 8 µg/mL	–	–	0.83	–	0.68	0.505
[2], first compound 16 µg/mL	–	–	0.854	–	0.645	0.428
[2], first compound 32 µg/mL	0.639	0.694	–	0.666	–	–
[2], first compound 64 µg/mL	0.0786	0.071	–	0.0311	–	–
[4], first compound 32 µg/mL	0.788	0.834	–	0.992	–	–
[4], first compound 64 µg/mL	0.0706	0.0748	–	0.0694	–	–

main component drawn
Settings	Bliss interaction score
[5]	0.138
[6]	0.0966
[7]	-0.0746
[8]	0.0832

CN[C@@H]1[C@H](O)[C@H](NC)[C@H]2O[C@@]3(O)C(=O)C[C@@H](C)O[C@H]3O[C@@H]2[C@H]1O [Spectinomycin] + CN(N=O)C(=O)N[C@@H](C=O)[C@@H](O)[C@H](O)[C@H](O)CO [Streptozotocin]
fitness, one replicate
Settings	partner 0.15 µg/mL	partner 0.3 µg/mL	partner 0.6 µg/mL	partner 1.2 µg/mL	partner 2.4 µg/mL	partner 4.8 µg/mL
[1], first compound 2 µg/mL	0.961	0.958	0.991	–	–	–
[1], first compound 4 µg/mL	≥ 1	≥ 1	≥ 1	–	–	–
[1], first compound 8 µg/mL	0.977	0.832	0.926	–	–	–
[2], first compound 32 µg/mL	0.519	0.423	0.0868	–	–	–
[2], first compound 64 µg/mL	0.0732	0.067	0.0303	–	–	–
[3], first compound 16 µg/mL	–	–	–	0.764	0.841	0.686
[4], first compound 32 µg/mL	0.674	0.696	0.686	–	–	–
[4], first compound 64 µg/mL	0.0638	0.0605	0.0885	–	–	–

fitness
Settings	partner 0.15 µg/mL	partner 0.3 µg/mL	partner 0.6 µg/mL	partner 1.2 µg/mL	partner 2.4 µg/mL	partner 4.8 µg/mL
[2], first compound 4 µg/mL	0.818	0.665	0.51	–	–	–
[2], first compound 8 µg/mL	0.812	0.631	0.478	–	–	–
[2], first compound 16 µg/mL	0.813	0.614	0.427	–	–	–
[3], first compound 4 µg/mL	–	–	–	0.947	0.928	0.913
[3], first compound 8 µg/mL	–	–	–	0.847	0.832	0.81
[4], first compound 4 µg/mL	0.831	0.761	0.757	–	–	–
[4], first compound 8 µg/mL	0.875	0.798	0.754	–	–	–
[4], first compound 16 µg/mL	0.769	0.781	0.722	–	–	–

Settings	Bliss interaction score
[5]	-0.0285
[6]	-0.046
[7]	-0.0505
[8]	0.0831

CN[C@@H]1[C@H](O)[C@H](NC)[C@H]2O[C@@]3(O)C(=O)C[C@@H](C)O[C@H]3O[C@@H]2[C@H]1O [Spectinomycin] + CN[C@H](CC(C)C)C(=O)N[C@H]1C(=O)N[C@@H](CC(N)=O)C(=O)N[C@H]2C(=O)N[C@H]3C(=O)N[C@H](C(=O)N[C@H](C(=O)O)c4cc(O)cc(O)c4-c4cc3ccc4O)[C@H](O)c3ccc(c(Cl)c3)Oc3cc2cc(c3O[C@@H]2O[C@H](CO)[C@@H](O)[C@H](O)[C@H]2O[C@H]2C[C@](C)(N)[C@H](O)[C@H](C)O2)Oc2ccc(cc2Cl)[C@H]1O [Vancomycin]
fitness
Settings	first compound 4 µg/mL	first compound 8 µg/mL	first compound 16 µg/mL
[2], partner 0.1875 µg/mL	0.945	0.971	0.906
[2], partner 0.375 µg/mL	0.916	0.979	0.921
[2], partner 0.75 µg/mL	0.928	0.946	0.892
[3], partner 0.03125 µg/mL	0.979	0.933	0.835
[3], partner 0.0625 µg/mL	0.902	0.918	0.804
[3], partner 0.125 µg/mL	–	0.878	–
[4], partner 0.1875 µg/mL	0.906	0.938	0.85
[4], partner 0.375 µg/mL	0.898	0.893	0.774
[4], partner 0.75 µg/mL	≥ 1	0.985	0.908

fitness, one replicate
Settings	partner 0.1875 µg/mL	partner 0.25 µg/mL	partner 0.375 µg/mL	partner 0.5 µg/mL	partner 0.75 µg/mL
[2], first compound 32 µg/mL	0.636	–	0.623	–	0.613
[2], first compound 64 µg/mL	0.119	–	0.071	–	0.0594
[3], first compound 4 µg/mL	–	0.437	–	0.0734	–
[3], first compound 8 µg/mL	–	0.293	–	0.0189	–
[4], first compound 32 µg/mL	0.741	–	0.74	–	0.737
[4], first compound 64 µg/mL	0.0522	–	0.0729	–	0.0868

Settings	Bliss interaction score
[5]	0.0821
[6]	0.0699
[7]	-0.0797
[8]	-0.059

CN[C@@H]1[C@H](O)[C@H](NC)[C@H]2O[C@@]3(O)C(=O)C[C@@H](C)O[C@H]3O[C@@H]2[C@H]1O [Spectinomycin] + Cn1nnc(-c2ccc(-c3ccc(N4C[C@H](CO)OC4=O)cc3F)cn2)n1 [Tedizolid]
fitness
Settings	first compound 4 µg/mL	first compound 8 µg/mL	first compound 16 µg/mL
[2], partner 0.0625 µg/mL	0.922	0.939	–
[3], partner 0.03125 µg/mL	0.87	0.914	0.78
[3], partner 0.0625 µg/mL	0.888	0.955	0.807
[3], partner 0.125 µg/mL	0.815	0.807	0.729
[4], partner 0.0625 µg/mL	0.964	0.916	0.744
[4], partner 0.125 µg/mL	0.657	0.678	0.641
[4], partner 0.25 µg/mL	0.257	0.225	0.199

fitness, one replicate
Settings	partner 0.0625 µg/mL	partner 0.125 µg/mL	partner 0.25 µg/mL	partner 0.5 µg/mL
[2], first compound 32 µg/mL	0.101	0.0307	0.0315	–
[2], first compound 64 µg/mL	0.0254	0.023	0.0159	–
[3], first compound 4 µg/mL	–	–	0.73	0.362
[3], first compound 8 µg/mL	–	–	0.724	0.416
[4], first compound 32 µg/mL	0.406	0.202	0.0234	–
[4], first compound 64 µg/mL	0.0239	0.0268	0.0093	–

Settings	Bliss interaction score
[5]	-0.0466
[6]	-0.111
[7]	-0.0885
[8]	0.0654

CN[C@@H]1[C@H](O[C@H]2[C@H](O[C@H]3[C@H](O)[C@@H](O)[C@H](N=C(N)N)[C@@H](O)[C@@H]3N=C(N)N)O[C@@H](C)[C@]2(O)C=O)O[C@@H](CO)[C@H](O)[C@H]1O [Streptomycin]
Settings	MIC [µg/mL]
[9]	8 (≈ 13.8 µM)
[10]	8 (≈ 13.8 µM)
[11]	8 (≈ 13.8 µM)
[12]	8 (≈ 13.8 µM)

fitness
Settings	1 µg/mL	2 µg/mL	4 µg/mL	8 µg/mL
[1]	–	0.954	0.775	0.0378
[2]	0.971	0.954	0.899	0.579
[3]	–	0.932	0.943	0.914
